According to PMC3025356, “Mechanism of the Ca^2+-Dependent Interaction between S100A4 and Tail Fragments of Nonmuscle Myosin Heavy Chain IIA” (Journal of Molecular Biology, 2011):
Where two headings read alike, the source gives them in different places.

What was measured:
[1] = biological target: T1, S100A4 (Homo sapiens, UniProt P26447); assay: Competition of M32/M16^N with M200 for S100A4 (turbidity); assay type: biochemical; conditions: 250 μM peptide, 5 μM M200, 10 μM S100A4, Ca^2+
T1 construct: We used full-length S100A4 for this analysis; made in house; host or cells: Escherichia coli BL21(DE3)
T1 sequence (P26447 whole entry): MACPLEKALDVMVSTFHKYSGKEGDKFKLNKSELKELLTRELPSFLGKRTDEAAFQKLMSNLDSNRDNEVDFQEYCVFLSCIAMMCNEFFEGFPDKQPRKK
Experimental: Fig. 9 Dissociation of M200 filaments by S100A4. (a) Initially, M200 was added (i) from a concentrated stock in 0.5 M NaCl to give a final concentration of 5 μM M200 (with respect to the polypeptide chain) in 100 mM NaCl, 10 mM Hepes, and 0.1 mM Ca^2+ at pH 7.5 and 20 °C. A biphasic rise in turbidity was recorded for 200 s (continuous line). Then 10 μM S100A4 (with respect to monomer concentration) was added (ii), followed by 0.2 mM EGTA (iii) and 1 mM Ca^2+ (iv). […] (b) M200 was diluted (i) into 100 mM NaCl to form filaments as in (a), then 5 μM S100A4 was added (ii), causing a 54% drop in turbidity. A further 5 μM S100A4 (iii) caused turbidity to fall to almost zero. (c) Stopped-flow records monitoring the dissociation of 5 μM M200 filaments on jumping [NaCl] from 100 mM to 120 mM NaCl. Other components of the buffer were 20 mM Hepes, 1 mM Mg^2+, and 100 μM Ca^2+ at pH 7.5 and 20 °C. […] In the presence of 20 μM S100A4 (lower trace), the turbidity decreased by 87% with a rate constant of 0.2 s^− 1.
Further information on Scheme 2 was obtained from competition assays. […] An independent estimate of K5 based on the Ca^2+ dependence of the turbidity assay yielded a value of 0.003 μM (see Supplementary Data).
The decrease in fluorescence, […]
that F-M16N binding was slightly faster. […]
(§1) A second estimate was calculated from the apparent Ca2+ binding constant observed in the turbidity assay […]

[2] = biological target: T1, S100A4; assay: Stopped-flow fluorescein fluorescence, kinetics of myosin peptide binding to S100A4; conditions: for dissociation rate constants, F-M16N vs M32: modelled
Experimental: (§2) Stopped-flow measurements were carried out using an SX18-MV apparatus (Applied Photophysics Ltd., Leatherhead, UK) with a dead time of 1.5 ms.[40] Records were generally captured on a logarithmic time base. Absorption (turbidity) measurements were usually recorded using a 10-mm pathlength, while fluorescence was recorded with a 2-mm pathlength for excitation and emission. The stated concentrations of components refer to the reaction chamber after mixing, unless otherwise indicated. Tyrosine fluorescence was excited at 280 nm, and the emission was collected through a UG11 bandpass filter plus a 305-nm longpass filter.[18] Fluorescein fluorescence was excited at 480 nm, and the emission was detected through a 515-nm longpass filter. Quin-2 fluorescence was measured by excitation at 336 nm, and emission was collected with a 455-nm longpass filter. For simultaneous recording of light scatter, a second channel was monitored through a UG11 filter. Rate constants were obtained by fitting to single-exponential or double-exponential functions using Kaleidagraph (Synergy Software) or Applied Photophysics Pro-Data software. Modeling of kinetic schemes was performed using Berkeley Madonna software.
The value of K5 (scheme 2) was estimated from two independent experiments. From the competition
as §1
Fig. S2. (a) Displacement of 0.1
monitored by fluorescein emission intensity. […] (b)
Ca2+ was mixed with 1 mM EGTA. […] Note in these
stopped-flow measurements of fluorescein intensity, no polarising optics were present at the magic angle

[3] = biological target: T1, S100A4; assay: Summary of rate and equilibrium constants defined according to Scheme 1; assay type: binding; conditions: for k− 3: Ca^2+ dissociation from peptide–S100A4–Ca^2+; for k2: peptide association to S100A4–Ca^2+; for k− 2: peptide dissociation from S100A4–Ca^2+
Excerpt: The interaction of myosin tail fragments (M) with S100A4 depends on [Ca^2+], with little detectable binding in the absence of Ca^2+.[2,7,17] Scheme 1 presents a minimal pathway describing the thermodynamics and kinetics of this interaction, where arrow lengths indicate the approximate position of the equilibria involved.
[formula] Scheme 1 Ca2+ and myosin peptide (M) binding to S100A4.
The binding of Ca^2+ and a target peptide to S100A4, as shown in Scheme 1, is thermodynamically coupled so that K1K2 = K0K3. For simplicity, we assume a 1:1 stoichiometry and independent binding sites, which are unlikely to be true at least for the longer fragments. However, the trends in binding remain valid for more complex cases. Binding of target peptides to S100A4 in the absence of Ca^2+ is weak (K0 > 100 μM), while binding of target peptides to S100A4 in the presence of Ca^2+ (K2) is around a micromolar or less for longer fragments. Knowing that Ca^2+ binding to S100A4 has K1 = 2–5 μM (from the ITC data above and the literature[14,17,18]) requires that Ca^2+ binding to the M–S100A4 complex be very tight (K3 < 0.15 μM and even lower for M200). The latter cannot be easily determined directly as it requires protein concentrations greater than K0 (i.e., >>100 μM) so that the proteins remain bound together throughout the titration with Ca^2+. However, K3 is readily determined by calculation because values or limits for K0, K1, and K2 are available (Table 2). This aspect is addressed further below for M200, which has the complication of forming filaments at the ionic strength used.

[4] = biological target: T1, S100A4; assay: Quin-2 fluorescence, Ca^2+ dissociation from S100A4 in the presence of target peptides; assay type: binding
Experimental: Ca^2+ dissociation measurements for wild-type S100A4, using Quin-2 as described above, were repeated as a control for the effect of target peptides on this process. On mixing 10 μM S100A4 in the presence of Ca^2+ with 100 μM Quin-2, the observed profile was fitted to a single exponential with kobs = 17 s^− 1 (Fig. 5a; cf. k− 1 in Scheme 1).
Fig. 5 Dissociation of Ca^2+ from S100A4 in the absence and in the presence of target peptides monitored using Quin-2 fluorescence. (a) Mixed with 100 μM Quin-2 was 10 μM S100A4 + 50 μM Ca^2+ (stopped-flow reaction chamber concentrations). A superposed fit to a single exponential yields kobs = 17 s^− 1. […] (d) As in (a), but with 2.5 μM M200 premixed with 5 μM S100A4. A biphasic exponential fit yielded rate constants of 13 s^− 1 (A = 26%) and 0.30 s^− 1 (A = 74%). […] Experiments were carried out in either 20 mM NaCl, 20 mM Tris, 1 mM DTT, and 100 μM Ca^2+ at pH 7.5 and 20 °C (a and b; cf. Malashkevich et al.[17]), or 100 mM NaCl, 10 mM Hepes, and 100 μM Ca^2+ at pH 7.5 and 20 °C (c and d). […] Rate constants were unaffected by the inclusion of 1 mM Mg^2+.
as §2, with “Rate constants were obtained by fitting to single-exponential or double-exponential functions using Kaleidagraph (Synergy Software) or Applied Photophysics Pro-Data software. Modeling of kinetic schemes was performed using Berkeley Madonna software.” left out

[5] = biological target: T1, S100A4; assay: Fluorescence anisotropy titration, F-M16^N binding to S100A4
Experimental: Titration (circles) was carried out in 20 mM NaCl, 10 mM Hepes, 1 mM Mg^2+, and 100 μM Ca^2+ at pH 7.5 and 20 °C. […] (squares).
Fluorescence spectra and anisotropy measurements were recorded using an SLM 8000 spectrofluorimeter (SLM, Urbana, IL). Fluorescein anisotropy measurements were carried out in L-format using a 515-nm emission filter. The four combinations of vertical and horizontal polarisers (vv, vh, hh, and hv) were each recorded for 30 s, and then the initial setting (vv) was re-read to check for signal stability. Calculations of the total fluorescence (Ivv + 2Ivh) and anisotropy (Ivv − Ivh/(Ivv + 2Ivh)), corrected for the g factor (hh/hv), were performed using an Excel spreadsheet. […] Note that the small correction for the emission intensity weighting to the observed anisotropy was not applied to these competitive titrations as the error will tend to cancel.

[6] = biological target: T1, S100A4; conditions: cited from earlier work
Excerpt: The site between helix III and helix IV of S100A4, exposed in the presence of Ca^2+, could accommodate an α-helical target of about 16 residues. The longer M32 mini ...

CSCC[C@H](NC(=O)[C@H](C)NC(=O)[C@H](CC(=O)O)NC(=O)[C@H](C)NC(C)=O)C(=O)N[C@@H](CC(N)=O)C(=O)N[C@@H](CCCNC(=N)N)C(=O)N[C@@H](CCC(=O)O)C(=O)N[C@H](C(=O)N[C@@H](CO)C(=O)N[C@@H](CO)C(=O)N[C@@H](CC(C)C)C(=O)N[C@@H](CCCCN)C(=O)N[C@@H](CC(N)=O)C(=O)N[C@@H](CCCCN)C(=O)N[C@@H](CC(C)C)C(=O)N[C@@H](CCCNC(=N)N)C(=O)N[C@@H](CCCNC(=N)N)C(=O)NCC(=O)N[C@@H](CC(=O)O)C(=O)N[C@@H](CC(C)C)C(=O)N1CCC[C@H]1C(=O)N[C@@H](Cc1ccccc1)C(=O)N[C@H](C(=O)N[C@H](C(=O)N1CCC[C@H]1C(=O)N[C@@H](CCCNC(=N)N)C(=O)N[C@@H](CCCNC(=N)N)C(=O)N[C@@H](CCSC)C(=O)N[C@@H](C)C(=O)N[C@@H](CCCNC(=N)N)C(=O)N[C@@H](CCCCN)C(=O)NCC(N)=O)C(C)C)C(C)C)C(C)C [M32]
inhibition of turbidity change amplitude [1]: 50%
dissociation rate constants, F-M16N vs M32 [2]: similar
Kd ([3]; Ca^2+ binding to peptide–S100A4, limit from K3 = K1K2/K0, read-out: K3): < 0.15 µM
k− 3 [3]: 3.2 s^− 1
k2 [3]: ∼ 2 μM^− 1 s^− 1
Kd ([3]; peptide binding to S100A4 without Ca^2+, read-out: K0): > 100 µM
k− 2 [3]: ∼ 6 s^− 1
kobs, Ca^2+ dissociation with peptide ([4]; 50 μM peptide premixed with 10 μM S100A4, 100 mM NaCl, 10 mM Hepes, 100 μM Ca^2+, pH 7.5, 20 °C): 3.3 s^− 1
stoichiometry (discussion) ([4]; S100A4 concentration from absorbance at 280 nm): one mol of M32 peptide binds to two S100A4 monomers

CSCC[C@H](NC(=O)[C@H](C)NC(=O)[C@H](CC(=O)O)NC(=O)CCCCCNC(=S)Nc1ccc2c(c1)C(=O)OC21c2ccc(O)cc2Oc2cc(O)ccc21)C(=O)N[C@@H](CC(N)=O)C(=O)N[C@@H](CCCNC(=N)N)C(=O)N[C@@H](CCC(=O)O)C(=O)N[C@H](C(=O)N[C@@H](CO)C(=O)N[C@@H](CO)C(=O)N[C@@H](CC(C)C)C(=O)N[C@@H](CCCCN)C(=O)N[C@@H](CC(N)=O)C(=O)N[C@@H](CCCCN)C(=O)N[C@@H](CC(C)C)C(=O)N[C@@H](CCCNC(=N)N)C(=O)N[C@@H](CCCNC(=N)N)C(N)=O)C(C)C [F-M16^N]
quench of total fluorescein fluorescence on binding [5]: ~35%
displacement rate constant by excess M32 ([2]; 0.1 μM F-M16^N, 5 μM S100A4, 60 μM M32, Ca^2+): 7.7 s^− 1
kobs on mixing with EGTA (Ca^2+ dissociation from complex, k− 3) ([2]; 0.1 μM F-M16^N, 10 μM S100A4, 50 μM Ca^2+, 1 mM EGTA): 9.4 s^− 1
kobs of binding ([2]; 0.1 μM F-M16^N, 25 μM S100A4): 138 s^− 1
calculated kobs via k− 2 and k− 1 route ([2]; 10 μM S100A4): 1.8 s^− 1
maximum kobs ([2]; above 25 μM S100A4): 150 s^− 1
association rate constant k2 relative to M32 ([2]; competition with equimolar M32, modelled): about twice as large as that of M32
fluorescence quench overshoot ([2]; equimolar F-M16N and M32 mixed with equimolar S100A4): 12%
amplitude of fluorescence decrease with competitor ([2]; equimolar F-M16N and M32 with equimolar S100A4, relative to absence of M32): about half the amplitude observed in the absence of M32
dissociation rate constants, F-M16N vs M32 [2]: similar
kon ([2]; read-out: association rate constant kon (k2)): 4.9e+06 M⁻¹ s⁻¹
koff ([2]; read-out: dissociation rate constant koff (k− 2)): 6.2 s⁻¹
k3, Ca^2+ binding to preformed peptide–S100A4 complex ([2]; thermodynamic balance of Scheme 1): > 5 × 10^8 M^− 1 s^− 1
k1 ([3]; Ca^2+ association to free S100A4, common to all targets): 3.2 μM^− 1 s^− 1
k3 ([3]; Ca^2+ association to peptide–S100A4): > 500 μM^− 1 s^− 1
k− 1 ([3]; Ca^2+ dissociation from free S100A4, common to all targets): 16 s^− 1
k− 3 [3]: 9.4 s^− 1
k2 [3]: 4.9 μM^− 1 s^− 1
k− 2 [3]: 6.2 s^− 1

R1893-R1923 myosin fragment: R1893-R1923 myosin fragment of Malashkevich et al.
stoichiometry [6]: ~0.5 mol of peptide per mole of S100A4 (dimer)
